Results on 22 molecules are retold here after patent US10087178B2, “Substituted spiropyrido[1,2-a]pyrazine derivative and medicinal use thereof as HIV integrase inhibitor” (priority 2012, dated 2018).

Where a name gives a salt, the structure may show the parent alone.

The test system of the first test is HIV-1 NL4-3 strain. Kind of test: Evaluation of antiviral activity: acute infection system of MT-4 cell with HIV-1 NL4-3 strain. As to conditions: Human immunodeficiency virus 1, NL43, MT4, 120 h, MT-4 cells infected with HIV-1 NL4-3 strain (MOI 0.05), cultured 5 days, Cell Titer-Glo; read-out: antiviral activity (EC50). The class given is cell-based. (Cellular ATP, detected with luciferase, serves as a proxy for viable cell number.)
One may read the EC50 as the concentration at which the effect is half-maximal. Take `CC(C)O[C@H]1C[C@]2(CN(C(C)C)C(=O)c3c(O)c(=O)c(C(=O)NCc4ccc(F)cc4F)cn32)C1` [Example S33, N-(2,4-difluorobenzyl)-9′-hydroxy-cis-3-isopropoxy-2′-isopropyl-1′,8′-dioxo-1′,2′,3′,8′-tetrahydrospiro[cyclobutane-1,4′-pyrido[1,2-a]pyrazine]-7′-carboxamide hydrochloride]: the EC50 stood at 6.4 nM. On the same count and under the same terms, next, `COC[C@H]1C[C@]2(CN(C(C)C)C(=O)c3c(O)c(=O)c(C(=O)NCc4ccc(F)cc4F)cn32)C1` [Example S23, N-(2,4-difluorobenzyl)-9′-hydroxy-2′-isopropyl-cis-3-(methoxymethyl)-1′,8′-dioxo-1′,2′,3′,8′-tetrahydrospiro[cyclobutane-1,4′-pyrido[1,2-a]pyrazine]-7′-carboxamide hydrochloride]: 6.3 nM. The same measure, in the same setting: next, `CC(C)O[C@H]1C[C@@]2(CN(C)C(=O)c3c(O)c(=O)c(C(=O)NCc4cccc(Cl)c4F)cn32)C1` [Example S40, N-(3-chloro-2-fluorobenzyl)-9′-hydroxy-trans-3-isopropoxy-2′-methyl-1′-8′-dioxo-1′,2′,3′,8′-tetrahydrospiro[cyclobutane-1,4′-pyrido[1,2-a]pyrazine]-7′-carboxamide hydrochloride]: 2.3 nM; `CO[C@H]1C[C@]2(CN(C)C(=O)c3c(OC(=O)C(C)C)c(=O)c(C(=O)NCc4cccc(Cl)c4F)cn32)C1` [Example S66, 7′-(3-chloro-2-fluorobenzylcarbamoyl)-cis-3-methoxy-2′-methyl-1′,8′-dioxo-1′,2′,3′,8′-tetrahydrospiro[cyclobutane-1,4′-pyrido[1,2-a]pyrazin]-9′-yl isobutyrate]: 0.9 nM.

As for `CCN1C[C@]2(C[C@@H](COC)C2)n2cc(C(=O)NCc3cccc(Cl)c3F)c(=O)c(O)c2C1=O` [Example S45, N-(3-chloro-2-fluorobenzyl)-2′-ethyl-9′-hydroxy-trans-3-(methoxymethyl)-1′,8′-dioxo-1′,2′,3′,8′-tetrahydrospiro[cyclobutane-1,4′-pyrido[1,2-a]pyrazine]-7′-carboxamide hydrochloride], the EC50 is 3.9 nM. The same measure, in the same setting: as for `CO[C@H]1C[C@]2(Cn3cc(C(=O)NCc4ccc(F)cc4F)c(=O)c(O)c3C(=O)N2C(C)C)C1` [Example S53, N-(2,4-difluorobenzyl)-9′-hydroxy-2′-isopropyl-cis-3-methoxy-1′,8′-dioxo-1′,2′,4′,8′-tetrahydrospiro[cyclobutane-1,3′-pyrido[1,2-a]pyrazine]-7′-carboxamide hydrochloride], the figure is 10 nM; as for `CN(C)C(=O)[C@@H]1C[C@]12CN(C1CC1)C(=O)c1c(O)c(=O)c(C(=O)NCc3cccc(Cl)c3F)cn12` [Example T33, (1R,2R)-N^7′-(3-chloro-2-fluorobenzyl)-2′-cyclopropyl-9′-hydroxy-N^2,N^2-dimethyl-1′,8′-dioxo-1′,2′,3′,8′-tetrahydrospiro[cyclopropane-1,4′-pyrido[1,2-a]pyrazine]-2,7′-dicarboxamide], 3.3 nM.

In the case of `CCO[C@H]1C[C@@]2(Cn3cc(C(=O)NCc4cccc(Cl)c4F)c(=O)c(O)c3C(=O)N2CC)C1` [Example S56, N-(3-chloro-2-fluorobenzyl)- trans-3-ethoxy-2′-ethyl-9′-hydroxy-1′,8′-dioxo-1′,2′,4′,8′-tetrahydrospiro[cyclobutane-1,3′-pyrido[1,2-a]pyrazine]-7′-carboxamide hydrochloride], the EC50 came to 5.1 nM. The same measure, in the same setting: next, `CCC(=O)Oc1c2n(cc(C(=O)NCc3cccc(Cl)c3F)c1=O)[C@]1(CN(C)C2=O)C[C@H](COC)C1` [Example S67, 7′-(3-chloro-2-fluorobenzylcarbamoyl)-cis-3-(methoxymethyl)-2′-methyl-1′,8′-dioxo-1′,2′,3′,8′-tetrahydrospiro[cyclobutane-1,4′-pyrido[1,2-a]pyrazin]-9′-yl propionate]: 0.9 nM; `CCOC[C@H]1C[C@]2(CN(C)C(=O)c3c(O)c(=O)c(C(=O)NCc4cccc(Cl)c4F)cn32)C1` [Example S39, N-(3-chloro-2-fluorobenzyl)- cis-3-(ethoxymethyl)-9′-hydroxy-2′-methyl-1′,8′-dioxo-1′,2′,3′,8′-tetrahydrospiro[cyclobutane-1,4′-pyrido[1,2-a]pyrazine]-7′-carboxamide hydrochloride]: 3.5 nM. Take `CCN1C(=O)c2c(O)c(=O)c(C(=O)NCc3ccc(F)cc3F)cn2C[C@@]12C[C@@H]2COC` [Example T40, (1S,2S)-N-(2,4-difluorobenzyl)-2′-ethyl-9′-hydroxy-2-(methoxymethyl)-1′,8′-dioxo-1′,2′,4′,8′-tetrahydrospiro[cylcopropane-1,3′-pyrido[1,2-a]pyrazine]-7′-carboxamide hydrochloride]: the concentration for a half-maximal effect (EC50) was 1.9 nM. Turning to `CCN1C[C@]2(C[C@@H](CO)C2)n2cc(C(=O)NCc3cccc(Cl)c3F)c(=O)c(O)c2C1=O` [Example S44, N-(3-chloro-2-fluorobenzyl)-2′-ethyl-9′-hydroxy-trans-3-(hydroxymethyl)-1′,8′-dioxo-1′,2′,3′,8′-tetrahydrospiro[cyclobutane-1,4′-pyrido[1,2-a]pyrazine]-7′-carboxamide hydrochloride], the EC50 is 11 nM.

The test is the same for the next values; noted with them: Human immunodeficiency virus 1, NL43, MT4, 120 h, antiviral activity; MT-4 cells infected with HIV-1 NL4-3 (MOI 0.05), 5 days culture, Cell Titer-Glo luminescence.
`COC[C@H]1C[C@@]12CN(C(C)C)C(=O)c1c(O)c(=O)c(C(=O)NCc3ccc(F)cc3F)cn12` [Example 10, (1S,2S)—N-(2,4-difluorobenzyl)-9′-hydroxy-2′-isopropyl-2-(methoxymethyl)-1′,8′-dioxo-1′,2′,3′,8′-tetrahydrospiro[cyclopropane-1,4′-pyrido[1,2-a]pyrazine]-7′-carboxamide hydrochloride] showed a concentration giving a half-maximal response (EC50) of 3.6 nM.

Still in this test, the particulars now being: Human immunodeficiency virus 1, NL43, MT4, 120 h, antiviral activity; MT-4 cells infected with HIV-1 NL4-3 (MOI 0.05), 5 days culture, Cell Titer-Glo luminescence; read-out: EC50.
As for `CCO[C@H]1C[C@@]2(CN(C(C)C)C(=O)c3c(O)c(=O)c(C(=O)NCc4ccc(F)cc4F)cn32)C1` [Example S7, N-(2,4-difluorobenzyl)- trans-3-ethoxy-9′-hydroxy-2′-isopropyl-1′,8′-dioxo-1′,2′,3′,8′-tetrahydrospiro[cyclobutane-1,4′-pyrido[1,2-a]pyrazine]-7′-carboxamide hydrochloride], the EC50 stood at 3.7 nM.

In the case of `CCO[C@H]1C[C@]2(CN(CC)C(=O)c3c(O)c(=O)c(C(=O)NCc4ccc(F)cc4F)cn32)C1` [Example S21, N-(2,4-difluorobenzyl)-cis-3-ethoxy-2′-ethyl-9′-hydroxy-1′,8′-dioxo-1′,2′,3′,8′-tetrahydrospiro[cyclobutane-1,4′-pyrido[1,2-a]pyrazine]-7′-carboxamide hydrochloride], the EC50 is 3.8 nM. On the same count and under the same terms, next, `CCN1C[C@]2(C[C@@H](OC)C2)n2cc(C(=O)NCc3ccc(F)cc3F)c(=O)c(O)c2C1=O` [Example S19, N-(2,4-difluorobenzyl)-2′-ethyl-9′-hydroxy-trans-3-methoxy-1′,8′-dioxo-1′,2′,3′,8′-tetrahydrospiro[cyclobutane-1,4′-pyrido[1,2-a]pyrazine]-7′-carboxamide hydrochloride]: 4.8 nM; `CN1C[C@]2(C[C@H](OCc3ccccc3)C2)n2cc(C(=O)NCc3ccc(F)cc3F)c(=O)c(O)c2C1=O` [Example S10, cis-3-(benzyloxy)-N-(2,4-difluorobenzyl)-9′-hydroxy-2′-methyl-1′,8′-dioxo-1′,2′,3′,8′-tetrahydrospiro[cyclobutane-1,4′-pyrido[1,2-a]pyrazine]-7′-carboxamide hydrochloride]: 6.1 nM.

Staying with this test, now noted: Human immunodeficiency virus 1, NL43, MT4, 120 h, read-out: antiviral activity (EC50), MT-4 cells infected with HIV-1 NL4-3 strain (MOI 0.05), cultured 5 days, Cell Titer-Glo.
With `CCN1C(=O)c2c(O)c(=O)c(C(=O)NCc3ccc(OC)c(Cl)c3F)cn2C[C@@]12C[C@@H]2CO` [Example T48, (1S,2S)-N-(3-chloro-2-fluoro-4-methoxybenzyl)-2′-ethyl-9′-hydroxy-2-(hydroxymethyl)-1′,8′-dioxo-1′,2′,4′,8′-tetrahydrospiro[cyclopropane-1,3′-pyrido[1,2-a]pyrazine]-7′-carboxamide hydrochloride], the EC50 came to 18 nM. The same measure, in the same setting: as for `CC(C)N1C[C@@]2(C[C@@H]2CO)n2cc(C(=O)NCc3cccc(Cl)c3F)c(=O)c(O)c2C1=O` [Example T11, (1S,2S)-N-(3-chloro-2-fluorobenzyl)-9′-hydroxy-2-(hydroxymethyl)-2′-isopropyl-1′,8′-dioxo-1′,2′,3′,8′-tetrahydrospiro[cyclopropane-1,4′-pyrido[1,2-a]pyrazine]-7′-carboxamide hydrochloride], the figure is 6 nM. Still for that read-out and setting: next, `COC[C@@H]1C[C@]12CN(C)C(=O)c1c(O)c(=O)c(C(=O)NCc3cccc(Cl)c3F)cn12` [Example T24, (1R,2R)-N-(3-chloro-2-fluorobenzyl)-9′-hydroxy-2-(methoxymethyl)-2′-methyl-1′,8′-dioxo-1′,2′,3′,8′-tetrahydrospiro[cyclopropane-1,4-pyrido[1,2-a]pyrazine]-7′-carboxamide hydrochloride]: 3.2 nM.

Still in this test, the particulars now being: Human immunodeficiency virus 1, NL43, MT4, 120 h; read-out: antiviral activity (EC50).
In the case of `CO[C@H]1C[C@]2(CN(C)C(=O)c3c(O)c(=O)c(C(=O)NCc4cccc(Cl)c4F)cn32)C1` [Example 25, Monopotassium 7′-(3-chloro-2-fluorobenzylcarbamoyl)-cis-3-methoxy-2′-methyl-1′,8′-dioxo-1′,2′,3′,8′-tetrahydrospiro[cyclobutane-1,4′-pyrido[1,2-a]pyrazin]-9′-olate], the EC50 stood at 2.1 nM.

Staying with this test, now noted: MT-4 cells infected with HIV-1 NL4-3 strain (MOI 0.05), cultured 5 days, Cell Titer-Glo; read-out: antiviral activity (EC50).
As to `COC[C@H]1C[C@]2(CN(C)C(=O)c3c(O)c(=O)c(C(=O)NCc4cccc(Cl)c4F)cn32)C1` [Example 33, N-(3-chloro-2-fluorobenzyl)-9′-hydroxy-cis-3-(methoxymethyl)-2′-methyl-1′,8′-dioxo-1′,2′,3′,8′-tetrahydrospiro[cyclobutane-1,4′-pyrido[1,2-a]pyrazine]-7′-carboxamide 4-methylbenzenesulfonate], the EC50 was determined as 0.9 nM.
